The values that follow are results of earlier work, collected in article PMC11767451, “Novel Approaches to Monitor Pharmacokinetics and Metabolism of Gemcitabine-Ibandronate Conjugate in Mice and Dogs” (Molecules, 2025).

This series relates to bone-associated cancer cells. Also noted: method as in PMID 30413669. To be noted: cited from earlier work.

With `CC(O)(P(=O)(O)O)P(=O)(O)OP(=O)(O)OC[C@H]1O[C@@H](n2ccc(N)nc2=O)[C@@H](O)[C@@H]1O` (stereo partly drawn) [MBC-11], where the note is “clinical trials”, the “bone localized effects compared to free cytarabine” value was 2–20 fold. In addition, under “in humans”, the “metabolic activity of bone-associated cancer cells” value was “significant reductions” and the tolerability entry is “well tolerated”.
